Laboratory results from patent US20200239530A1, “COMPOUNDS AND METHODS OF MODULATING PROTEIN DEGRADATION” (Vividion Therapeutics, Inc., priority 2017, published 2020).

Target: T1, RPUSD3 RNA pseudouridylate synthase domain-containing pro (Homo sapiens, UniProt Q6P087)
T1 construct: Cells were resuspended in cold PBS on ice and sonicated with a probe sonicator to achieve lysis; endogenous in cells
T1 sequence (Q6P087 26-351): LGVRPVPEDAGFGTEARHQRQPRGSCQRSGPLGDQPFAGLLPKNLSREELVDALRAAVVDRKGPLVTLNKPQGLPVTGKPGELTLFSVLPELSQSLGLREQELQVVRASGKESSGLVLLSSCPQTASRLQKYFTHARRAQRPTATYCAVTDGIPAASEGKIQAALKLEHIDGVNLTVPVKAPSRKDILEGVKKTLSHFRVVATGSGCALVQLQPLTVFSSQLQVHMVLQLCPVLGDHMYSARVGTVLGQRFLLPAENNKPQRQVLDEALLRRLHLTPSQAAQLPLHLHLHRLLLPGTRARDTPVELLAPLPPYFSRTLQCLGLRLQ
Assay: Cysteine liganding, probe competition
Assay type: binding
Procedure, shortened: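 Probe competition in native proteome: 5 mg/ml lysate, compound 1 hr 25° C, then desthiobiotin iodoacetamide (10 mM stock) 1 hr 25° C; acetone ppt, urea/DTT reduction, iodoacetamide alkylation, trypsin, streptavidin pull-down.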

Row | SMILES | 100 Max (uniprot Q6P087) | 100 ave (uniprot Q6P087) | 500 Max (uniprot Q6P087) | 500 ave (uniprot Q6P087) | Liganded (RPUSD3 Res# 147, uniprot Q6P087)
1 | O=C(CCl)Nc1cc(C(F)(F)F)cc(C(F)(F)F)c1 [KBO3] | 14.63 | 9.07 | 49.47 | 49.47 | –
2 | COc1ccc2c(c1)CCCN2C(=O)CCl [KB02] | – | – | – | – | YES
